Results taken from article PMC7719179, “Small molecule inhibition of Dynamin-dependent endocytosis targets multiple niche signals and impairs leukemia stem cells” (Nature Communications, 2020).
“And” between values parts separate entries of the source, which are not always exact repeats. Equal entries are not always repeated.

Experiments:
[1] = tested on: pSTAT5 and pERK in patient-derived AML cells; assay: Cytokine-induced pSTAT5 and pERK in patient-derived AML cells; assay type: cell-based, human; conditions: for pERK relative expression, FOLD / pSTAT5 relative expression, FOLD: fold over unstimulated; for pSTAT5 FOLD: relative expression vs Unstimulated
Method: All bone marrow or peripheral blood samples from patients with AML were collected after informed consent, in accordance with guidelines approved by the Human Research Ethics Committee of Alfred Health. Human AML cells were thawed, washed, and adjusted to 2 × 10^6 cells/mL in Iscove’s Modified Dulbecco’s Media (#12440053, Gibco, Grand Island NY, USA) supplemented with Glutamax 2 mM (Gibco) and 1% v/v Penicillin/Streptomycin (Gibco). […] For cytokine-mediated signalling assays, cells were incubated with vehicle or Dynole 34-2 for 1 h, and subsequently stimulated with either 25 ng/mL rhIL-3 (#200-03, Pepro Tech), 25 ng/mL rhGM-CSF (#300-03, Pepro Tech) or 125 ng/mL rhSCF (#300-07, Pepro Tech) at 37 °C for 20 min. Cells were washed twice using cold PBS 1× and flow cytometry analyses were done on single-cell suspensions using BD Pharmingen antibodies against human CD45 (#557748), IL-3R (CD123, #560087), GM-CSFR alpha chain (CD116, #554532) and BioLegend antibody against human KIT (A3C6E2). For assessing intracellular levels of pSTAT5 and phospho-ERK, flow cytometry analyses were performed in duplicate on patient-derived AML cells as described in the FACS analysis section. The MFI observed without stimulation was reported as 1.

[2] = tested on: normal hematopoietic cells of WT mice; assay: Normal hematopoiesis in treated wild-type mice (thymus and bone marrow populations); assay type: in vivo
[3] = tested on: self-renewing pre-LSCs in Mx;YFP;Lmo2^Tg mice; assay: Intrathymic competition assay in Mx;YFP;Lmo2^Tg mice (%YFP+ DN3a thymocytes, BM); assay type: in vivo, mouse
Text: To exclude this possibility, we used a cell-marking strategy that enables detection of pre-LSCs in the absence of transplantation. In this assay, treatment of Mx1-Cre transgenic Rosa26-YFP (Mx;YFP) reporter mice with polyinosinic-polycytidylic acid (poly (I : C)) induces yellow fluorescent protein (YFP) expression in hematopoietic stem cells (HSCs)[10] (Supplementary Fig. 4e). In WT Mx;YFP mice, normal turnover of the thymus by HSCs leads to the generation of YFP-labelled DN3a cells over a 3-week period. However, in Mx;YFP;Lmo2^Tg mice, the presence of self-renewing pre-LSCs prevents YFP-labelled HSCs to replenish the thymus[10] and, thus, Lmo2^Tg DN3a thymocytes remain YFP negative. Therefore, we reasoned that therapies targeting pre-LSC self-renewal would allow migration of YFP^+ HSCs with the generation of YFP-labelled thymocytes.

CCCCCCCCNC(=O)C(C#N)=Cc1cn(CCCN(C)C)c2ccccc12 [Dynole 34-2, 2-Cyano-N-octyl-3-(1-(3-dimethylaminopropyl)-1H-indol-3-yl)-acrylamide]
pERK relative expression, MFI ([1]; AML01-021): 1807 MFI
pSTAT5 relative expression, MFI ([1]; AML01-021): 4941 MFI
pStat5 (MFI) ([1]; AML01-021): 2538 MFI
pERK relative expression, FOLD ([1]; AML01-021): 1.07 FOLD
pSTAT5 relative expression, FOLD ([1]; AML01-021): 1.87 FOLD
pSTAT5 FOLD ([1]; AML01-021): 1.02
pERK relative expression, MFI ([1]; AML01-050): 10447 MFI
pSTAT5 relative expression, MFI ([1]; AML01-050): 19500 MFI
pStat5 (MFI) ([1]; AML01-050): 29884 MFI
pERK relative expression, FOLD ([1]; AML01-050): 1.28 FOLD
pSTAT5 relative expression, FOLD ([1]; AML01-050): 0.97 FOLD
pSTAT5 FOLD ([1]; AML01-050): 0.84
pERK relative expression, MFI ([1]; AML01-072): 2195 MFI
pSTAT5 relative expression, MFI ([1]; AML01-072): 18325 MFI
pStat5 (MFI) ([1]; AML01-072): 10160 MFI
pERK relative expression, FOLD ([1]; AML01-072): 1.01 FOLD
pSTAT5 relative expression, FOLD ([1]; AML01-072): 0.91 FOLD
pSTAT5 FOLD ([1]; AML01-072): 0.88
pERK relative expression, MFI ([1]; AML01-226): 1574 MFI
pSTAT5 relative expression, MFI ([1]; AML01-226): 673 MFI
pStat5 (MFI) ([1]; AML01-226): 511 MFI
pERK relative expression, FOLD ([1]; AML01-226): 1.05 FOLD
pSTAT5 relative expression, FOLD ([1]; AML01-226): 0.89 FOLD
pSTAT5 FOLD ([1]; AML01-226): 1.01
pERK relative expression, MFI ([1]; AML01-307): 2891 MFI
pSTAT5 relative expression, MFI ([1]; AML01-307): 12933 MFI
pStat5 (MFI) ([1]; AML01-307): 10786 MFI
pERK relative expression, FOLD ([1]; AML01-307): 1.06 FOLD
pSTAT5 relative expression, FOLD ([1]; AML01-307): 1.07 FOLD
pSTAT5 FOLD ([1]; AML01-307): 1.08
pERK relative expression, MFI ([1]; AML02-078): 5047 MFI
pSTAT5 relative expression, MFI ([1]; AML02-078): 31582 MFI
pStat5 (MFI) ([1]; AML02-078): 31914 MFI
pERK relative expression, FOLD ([1]; AML02-078): 0.79 FOLD
pSTAT5 relative expression, FOLD ([1]; AML02-078): 1.24 FOLD
pSTAT5 FOLD ([1]; AML02-078): 1.05
pERK relative expression, MFI ([1]; AML02-123): 4380 MFI
pSTAT5 relative expression, MFI ([1]; AML02-123): 22757 MFI
pStat5 (MFI) ([1]; AML02-123): 30741 MFI
pERK relative expression, FOLD ([1]; AML02-123): 1.16 FOLD
pSTAT5 relative expression, FOLD ([1]; AML02-123): 1.15 FOLD
pSTAT5 FOLD ([1]; AML02-123): 1.00
pERK relative expression, MFI ([1]; AML02-232): 1644 MFI
pSTAT5 relative expression, MFI ([1]; AML02-232): 1406 MFI
pStat5 (MFI) ([1]; AML02-232): 688 MFI
pERK relative expression, FOLD ([1]; AML02-232): 1.04 FOLD
pSTAT5 relative expression, FOLD ([1]; AML02-232): 1.59 FOLD
pSTAT5 FOLD ([1]; AML02-232): 0.73
pERK relative expression, MFI ([1]; AML03-330): 10652 MFI
pSTAT5 relative expression, MFI ([1]; AML03-330): 5650 MFI
pStat5 (MFI) ([1]; AML03-330): 6696 MFI
pERK relative expression, FOLD ([1]; AML03-330): 0.97 FOLD
pSTAT5 relative expression, FOLD ([1]; AML03-330): 1.04 FOLD
pSTAT5 FOLD ([1]; AML03-330): 1.02
pERK relative expression, MFI ([1]; AML03-331): 1814 MFI
pSTAT5 relative expression, MFI ([1]; AML03-331): 1899 MFI
pStat5 (MFI) ([1]; AML03-331): 2344 MFI
pERK relative expression, FOLD ([1]; AML03-331): 0.94 FOLD
pSTAT5 relative expression, FOLD ([1]; AML03-331): 1.03 FOLD
pSTAT5 FOLD ([1]; AML03-331): 1.02
pERK relative expression, MFI ([1]; AML4): 1091 MFI
pSTAT5 relative expression, MFI ([1]; AML4): 3442 MFI
pStat5 (MFI) ([1]; AML4): 3071 MFI
pERK relative expression, FOLD ([1]; AML4): 1.13 FOLD
pSTAT5 relative expression, FOLD ([1]; AML4): 0.95 FOLD
pSTAT5 FOLD ([1]; AML4): 0.85
pERK relative expression, MFI ([1]; AML16): 2510 MFI
pSTAT5 relative expression, MFI ([1]; AML16): 17405 MFI
pStat5 (MFI) ([1]; AML16): 13885 MFI
pERK relative expression, FOLD ([1]; AML16): 0.44 FOLD
pSTAT5 relative expression, FOLD ([1]; AML16): 0.88 FOLD
pSTAT5 FOLD ([1]; AML16): 0.70
pERK relative expression, MFI ([1]; AML17): 822 MFI
pSTAT5 relative expression, MFI ([1]; AML17): 3831 MFI
pStat5 (MFI) ([1]; AML17): 3091 MFI
pERK relative expression, FOLD ([1]; AML17): 0.99 FOLD
pSTAT5 relative expression, FOLD ([1]; AML17): 1.02 FOLD
pSTAT5 FOLD ([1]; AML17): 1.01
pERK relative expression, MFI ([1]; AML18): 985 MFI
pSTAT5 relative expression, MFI ([1]; AML18): 4716 MFI
pStat5 (MFI) ([1]; AML18): 4188 MFI
pERK relative expression, FOLD ([1]; AML18): 0.99 FOLD
pSTAT5 relative expression, FOLD ([1]; AML18): 0.86 FOLD
pSTAT5 FOLD ([1]; AML18): 1.02
pERK relative expression, MFI ([1]; AML34): 2315 MFI
pStat5 (MFI) ([1]; AML34): 10444 MFI
pERK relative expression, FOLD ([1]; AML34): 0.84 FOLD
pSTAT5 FOLD ([1]; AML34): 1.43
pERK relative expression, MFI ([1]; AML54): 2163 MFI
pStat5 (MFI) ([1]; AML54): 4818 MFI
pERK relative expression, FOLD ([1]; AML54): 0.94 FOLD
pSTAT5 FOLD ([1]; AML54): 0.89
downstream signalling (pSTAT5) in human AML cells ([1]; result in words): blocked downstream signalling
Absolute numbers in the thymus: DN ([2]; Supplementary Figure 5a-b): 6020000 and 5580000 and 7110000
Absolute numbers in the thymus: DN1 ([2]; Supplementary Figure 5a-b): 511000 and 452000 and 707000
Absolute numbers in the thymus: DN2 ([2]; Supplementary Figure 5a-b): 47600 and 47100 and 78500
Absolute numbers in the thymus: DN4 ([2]; Supplementary Figure 5a-b): 3000000 and 2950000 and 3730000
Absolute numbers in the thymus: DP ([2]; Supplementary Figure 5a-b): 102000000 and 86500000 and 114000000
Absolute numbers in the thymus: SP ([2]; Supplementary Figure 5a-b): 11300000 and 9900000 and 12100000
Absolute numbers in the bone marrow: B cells ([2]; Supplementary Figure 5c-d): 6210000 and 6630000 and 5010000
Absolute numbers in the bone marrow: MPP2 ([2]; Supplementary Figure 5c-d): 32800 and 19900 and 19000
Absolute numbers in the bone marrow: MPP3 ([2]; Supplementary Figure 5c-d): 31000 and 22000 and 23000
Absolute numbers in the bone marrow: MPP4 ([2]; Supplementary Figure 5c-d): 146000 and 93900 and 87200
Absolute numbers in the bone marrow: Myeloid cells ([2]; Supplementary Figure 5c-d): 9680000 and 8860000 and 9360000
Absolute numbers in the bone marrow: T cells ([2]; Supplementary Figure 5c-d): 1060000 and 911000 and 1020000
effect on differentiated and progenitor cells in thymus and bone marrow ([2]; non-tumour-bearing mice, result in words): no detrimental effect
% YFP+ cells in DN3a population ([3]; Mx, YFP, Lmo2Tg mice, individual mice): 70.1% and 38.6% and 29.3%
YFP-labelled DN3a thymocytes ([3]; Mx;YFP;Lmo2^Tg mice, vehicle 10%): 46%
% YFP+ cells in bone marrow ([3]; genotype Mx, YFP, Lmo2Tg): 99% and 98.9%
